Laboratory results from the supplement of paper PMC10307832.

Assays:
Experiment in all cases: relative viability (nuclei count vs DMSO), 5 days (fraction); higher = more cells survive
VE-821 + AZD7762 = compound: CS(=O)(=O)c1ccc(-c2cnc(N)c(C(=O)Nc3ccccc3)n2)cc1 [VE-821] + NC(=O)Nc1cc(-c2cccc(F)c2)sc1C(=O)N[C@H]1CCCNC1 [AZD7762] (partner 0.2 µM)
Method in brief: (§1)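 Lung cancer cell lines were seeded in 1536-well plates and dosed by pin tool the next day, with either a single drug or a fixed anchor-drug dose combined with five library-drug doses (not always all listed) spaced in √10 steps. Five days later, one step fixed the cells and stained their nuclei (final 0.05% Triton X-100, 1% formaldehyde, 1 ug/ml Hoechst), and nuclei were counted on 4× images. Relative viability is the nuclei count in treated wells divided by the count in vehicle wells, and each value is the median of duplicate plates.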

[1] = compound: N#CC[C@H](C1CCCC1)n1cc(-c2ncnc3[nH]ccc23)cn1 [Ruxolitinib] + CC(=O)c1c(C)c2cnc(Nc3ccc(N4CCNCC4)cn3)nc2n(C2CCCC2)c1=O [Palbociclib] (partner 0.5 µM)
Method in brief: as §1

Vismodegib + Palbociclib = compound: CS(=O)(=O)c1ccc(C(=O)Nc2ccc(Cl)c(-c3ccccn3)c2)c(Cl)c1 [Vismodegib] + CC(=O)c1c(C)c2cnc(Nc3ccc(N4CCNCC4)cn3)nc2n(C2CCCC2)c1=O [Palbociclib] (partner 0.5 µM)
Method in brief: as §1

VE-821 + Navitoclax = compound: CS(=O)(=O)c1ccc(-c2cnc(N)c(C(=O)Nc3ccccc3)n2)cc1 [VE-821] + CC1(C)CCC(c2ccc(Cl)cc2)=C(CN2CCN(c3ccc(C(=O)NS(=O)(=O)c4ccc(N[C@H](CCN5CCOCC5)CSc5ccccc5)c(S(=O)(=O)C(F)(F)F)c4)cc3)CC2)C1 [Navitoclax] (partner 0.5 µM)
Method in brief: as §1

Row | Cell Line | relative viability (VE-821 + AZD7762; first compound 0.08 µM) | relative viability (VE-821 + AZD7762; first compound 0.253 µM) | relative viability (VE-821 + AZD7762; first compound 0.8 µM) | relative viability (VE-821 + AZD7762; first compound 2.53 µM) | relative viability (VE-821 + AZD7762; first compound 8 µM) | relative viability ([1]; first compound 0.08 µM) | relative viability ([1]; first compound 0.253 µM) | relative viability ([1]; first compound 0.8 µM) | relative viability ([1]; first compound 2.53 µM) | relative viability ([1]; first compound 8 µM) | relative viability (Vismodegib + Palbociclib; first compound 0.08 µM) | relative viability (Vismodegib + Palbociclib; first compound 0.253 µM) | relative viability (Vismodegib + Palbociclib; first compound 0.8 µM) | relative viability (Vismodegib + Palbociclib; first compound 8 µM) | relative viability (Vismodegib + Palbociclib; first compound 2.53 µM) | relative viability (VE-821 + Navitoclax; first compound 0.08 µM) | relative viability (VE-821 + Navitoclax; first compound 0.253 µM) | relative viability (VE-821 + Navitoclax; first compound 0.8 µM) | relative viability (VE-821 + Navitoclax; first compound 2.53 µM) | relative viability (VE-821 + Navitoclax; first compound 8 µM)
1 | SW 900 | 0.673 | 0.506 | 0.391 | 0.437 | 0.351 | 0.477 | 0.589 | 0.625 | 0.624 | 0.532 | 0.641 | 0.514 | 0.634 | 0.603 |  |  |  |  |  | 
2 | NCI-H358 | 0.627 | 0.603 | 0.447 | 0.41 | 0.293 | 0.167 | 0.125 | 0.16 | 0.14 | 0.127 | 0.141 | 0.181 | 0.138 | 0.16 | 0.135 |  |  |  |  | 
3 | ChaGo-K-1 | 0.884 | 0.729 | 0.866 | 0.747 | 0.48 | 0.909 | 0.924 | 0.906 | 0.8 | 0.789 | 0.913 | 0.968 | 0.893 | 0.915 | 0.927 | 0.929 | 1.06 | 1.22 | 1.03 | 0.594
4 | NCI-H1755 | 0.434 | 0.368 | 0.38 | 0.323 | 0.175 | 0.505 | 0.468 | 0.466 | 0.452 | 0.391 | 0.49 | 0.456 | 0.409 | 0.502 | 0.368 | 1.03 | 0.992 | 0.732 | 0.928 | 0.83
5 | LCLC-103H | 0.829 | 0.758 | 0.705 | 0.758 | 0.632 | 0.495 | 0.467 | 0.468 | 0.426 | 0.394 | 0.473 | 0.475 | 0.481 | 0.526 | 0.517 |  |  |  |  | 
6 | HCC-827 | 0.178 | 0.194 | 0.169 | 0.18 | 0.189 |  | 0.275 | 0.408 | 0.366 | 0.411 | 0.222 | 0.517 | 0.449 | 0.481 | 0.446 | 1.05 | 1.02 | 1.07 | 1.02 | 1.01
7 | HCC-44 | 0.94 | 0.944 | 1.07 | 0.964 | 0.914 | 0.995 | 1.03 | 0.98 | 0.942 | 0.947 | 1.02 | 0.92 | 0.911 | 1.01 | 0.913 | 1.01 | 0.992 | 0.975 | 1.19 | 1.08
8 | NCI-H727 | 0.512 | 0.495 | 0.411 | 0.382 | 0.41 | 0.539 | 0.676 | 0.586 | 0.611 | 0.713 | 0.687 | 0.649 | 0.631 | 0.639 | 0.723 | 0.478 | 0.57 | 0.411 | 0.546 | 0.216
9 | NCI-H1650 |  |  |  |  |  | 0.333 | 0.345 | 0.395 | 0.287 | 0.356 | 0.365 | 0.363 | 0.305 | 0.366 | 0.304 | 1.45 | 1.25 | 0.725 | 1.29 | 0.751
10 | COR-L 105 |  |  |  |  |  |  | 0.386 | 0.387 | 0.392 | 0.365 | 0.425 | 0.415 | 0.369 | 0.388 | 0.405 | 0.797 | 0.683 | 0.651 | 0.606 | 0.725
11 | COR-L23 |  |  |  |  |  | 0.343 | 0.273 | 0.371 | 0.248 | 0.222 | 0.337 | 0.33 | 0.344 | 0.312 | 0.289 | 1.05 | 1.01 | 1.23 | 1.15 | 0.894
12 | NCI-H596 | 1.03 | 0.918 | 0.915 | 0.961 | 0.787 |  |  |  |  |  |  |  |  |  |  | 0.72 | 1.05 | 0.987 | 0.894 | 0.644
13 | NCI-H322M | 0.565 | 0.488 | 0.361 | 0.382 | 0.366 | 0.503 | 0.488 | 0.536 | 0.645 | 0.563 | 0.455 | 0.465 | 0.459 | 0.509 | 0.506 | 1.24 |  | 1.39 | 1.38 | 1.08
14 | H3255 | 0.96 | 0.927 | 0.913 | 0.932 | 0.649 | 0.307 | 0.297 | 0.315 | 0.266 | 0.263 | 0.296 | 0.29 | 0.292 | 0.324 | 0.33 | 0.563 | 0.485 | 0.571 | 0.56 | 0.425
15 | PC-14 | 0.362 | 0.232 | 0.315 | 0.338 | 0.187 |  | 0.546 | 0.595 | 0.46 | 0.304 | 0.494 | 0.492 | 0.614 | 0.621 | 0.587 | 1.09 | 0.955 | 1.06 | 0.962 | 0.923
16 | A549 |  |  |  |  |  |  |  |  |  |  |  |  |  |  |  | 1.48 | 1.21 | 1.18 | 1.04 | 0.544
